Patent US8088951B2, “Epigenetic mechanisms re-establish access to long-term memory after neuronal loss” (Massachusetts Institute of Technology, priority 2006, dated 2012)

How the values were obtained:
dentate gyrus = test: Neurogenesis in dentate gyrus (BrdU, DCX); parameters: species or system mice; details: mouse, in vivo
Source text: (§1) HDAC inhibitors regulate neuronal activity and neurogenesis in dentate gyrus. […] Thus, activity induced c-fos expression may also be used to evaluate the effect of HDAC inhibitors on hippocampus dependent learning. FIG. 17d is a bar graph depicting the significant enhancement by SAHA.

[1] = test system: lys9lys 14 on histone 3 and lys5 on histone 4; test: Histone acetylation in brain lysates of treated mice; assay type: in vivo; details: compared to saline treated mice
Procedure: Immunoblotting and staining: Lysates for immunoblotting were prepared as described by Fischer et al. (3). To isolate histones, brain tissue was homogenized in TX-buffer (50 mM Tris HCL, 150 mM NACL, 2 mM EDTA, 1% Triton-100) and incubated at 4° C. for 15 min prior to centrifugation at 200 rpm for 10 min. After a wash-step in TX-buffer the pellet was dissolved in TX-buffer containing 0.2M HCl and incubated on ice for 30 min, before a second centrifugation at 10000 rpm for 10 min. The supernatant was either dialysed or directly used for immunoblotting. Antibodies were used in 1:1000 concentrations. All antibodies detecting histones and anti-PSD-95 were form Upstate (Lake Placid, N.Y.). Anti-synaptophysin (SVP38) was from Sigma. Anti-neuronal nuclei (neuN) and anti-growth associated protein (Gap43) were from Chemicon (Temecula, Calif.) and anti-N-cadherin, anti-β-catenin were from Santa Cruz (Santa Cruz, Calif.). Immunostaining was performed as described by Fischer et al. (3). Antibodies mentioned above were used in a 1:500 dilution. Anti-MAP-2 antibody (Sigma) was used in a 1:200 dilution.
(§2) The effects of SAHA and MS-275, relative to sodium butyrate (SB), on the hippocampus dependent associative learning in wildtype mice.

c-fos = c-fos positive cells after fear conditioning training; assay type: in vivo, mice; details: compared to saline treated group
Source text: as §1

C57BL/6J mice = test: Contextual fear conditioning (associative learning) in wild type mice; assay type: in vivo; details: for associative learning, contextual fear conditioning paradigm: wildtype mice, chronic treatment for 10-21 days
Source text: Learning tests: All behavioral testing is described in Fischer et al. (3).
Mechanism underlying EE. Other than a few genes involved in synaptic function, relatively little is known about the mechanism underlying EE (12-14). Since histone acetylation, an epigenetic mechanism regulating gene expression via chromatin remodeling, has recently been implicated in synaptic plasticity and learning behavior (15-18), the induction of a transcriptional program by EE that leads to activation of plasticity genes was evaluated. Wild type mice were subjected to EE and hippocampal and cortical brain lysates were obtained 3, 24 h or 2 weeks later (n=3/group) by acid extraction and probed with antibodies detecting histone-tail modification that indicate active chromatin. Increases in hippocampal H3 (K-9, K14) and H4 (K-5) and in cortical H3 (K-9) and H4 (K-5) acetylation were observed. […] No changes in H4 acetylation were observed when the Ac-H4 (K,8,12,16) antibody was used, which is likely due to the fact that H4-K16 is a marker of condensed chromatin. EE induced hippocampal and cortical histone 3 (H3) and histone 4 (H4) acetylation and […] as soon as 3 hours after treatment (FIGS. 3a, b). […] To investigate whether inhibition of HDACs mimics the effects of EE, SB was administered daily [ip] into wild type mice for 4 weeks (FIG. 3c). […] Two days after the last injection mice were trained in the fear conditioning paradigm. […] Locomotor activity or basal anxiety was not altered in SB-injected mice (FIG. 8c).
The effect of sodiumbutyrate injection on learning, basal anxiety, explorative behavior and brain plasticity. C57BL/6J mice were subjected to fear conditioning and injected intraperitoneally [ip] with 1.2 g/kg sodiumbutyrate (SB, n=8) or saline (vehicle; n=8) immediately afterwards. […] C57BL/6J mice were implanted with microcannulae into the lateral brain ventricles (icv) and injected with either 100 ng SB, 50 ng TSA or vehicle immediately after fear conditioning (n=8/group). […] C57BL/6J were daily injected [ip] with SB or saline (n=8/group) for 4 weeks before all mice were subjected to the elevated plus maze and open field test. […] Immunoblots were quantified relative to the optical density of the vehicle-group (set to 1). […] The analysis was performed as described under FIG. 1g.
as §2
Mice were injected 10 days with either 5 mg/kg of MS275 or 25 mg/kg of UW_WT-I—06 or UW_WT-I—05 before training and memory tests as described above. […] Andorfer, C. et al. Cell-cycle reentry and cell death in transgenic mice expressing nonmutant human tau isoforms. J neurosci 25, 5446-5454 (2005). • 2. Santacruz, K. et al. Tau suppression in a neurodegenerative mouse model improves memory function. Science 309, 476-481 (2005). • 3. Fischer, A., Sananbenesi, F., Pang, P. T., Lu, B. & Tsai, L. H. Opposing roles of transient and prolonged expression of p25 in synaptic plasticity and hippocampus-dependent memory. Neuron 48, 825-838 (2005). • 4. Cruz, J. C. & Tsai, L. H. Jekyll and Hyde kinase: roles for Cdk5 in brain development and disease. Curr Opin Neurobiol. 14, 390-394 (2004). • 5. Cruz, J. C., Tseng, H. C., Goldman, J. A., Shih, H. & Tsai, L. H. Aberrant Cdk5 activation by p25 triggers pathological events leading to neurodegeneration and neurofibrillary tangles. Neuron 40, 471-83 (2003). • 6. Nithianantharajah, J. & Hannan, A. J. Enriched environments, experience-dependent plasticity and disorders of the nervous system. Nat Rev Neurosci 7, 697-709 (2006). • 7. Kim, J. J. & Fanselow, M. S. Modality-specific retrograde amnesia of fear. Science 256, 675-7 (1992). • 8. Gilmore, E. C. & Herrup, K. Neocortical cell migration: GABAergic neurons and cells in layers I and VI move in a cyclin-dependent kinase 5-independent manner. J Neurosci 21, 9690-700 (2001). • 9. […]

| SMILES | BrdU positive cells in the subgranule zone of the dentate gyrus (dentate gyrus) | DCX (marker for newly generated neurons) labeled cells in dentate gyrus (dentate gyrus) | acetylation of lys9lys 14 on histone 3 and lys5 on histone 4 in brain lysates [1] | number of c-fos positive cells (c-fos) | associative learning, contextual fear conditioning paradigm (C57BL/6J mice) | freezing behavior during the memory test (C57BL/6J mice; icv 100 ng SB or 50 ng TSA immediately after fear conditioning, test 24 h later, P<0.0001) | associative learning (C57BL/6J mice; wild type mice, intraperitoneal [ip] and intracerebroventricular [icv] injections) |
| --- | --- | --- | --- | --- | --- | --- | --- |
| O=C(CCCCCCC(=O)Nc1ccccc1)NO [SAHA, suberoylanilide hydroxamic acid] | increased BrdU positive cells | labeled more cells | increased acetylation of lys9lys 14 on histone 3 and lys5 on histone 4 | higher number of c-fos positive cells | more potent than SB in facilitating associative learning | – | – |
| CC(/C=C/C(=O)NO)=C\[C@@H](C)C(=O)c1ccc(N(C)C)cc1 [TSA, trichostatin A] | – | – | – | – | – | more freezing behavior than vehicle injected mice | significantly facilitated associative learning |
| Nc1ccccc1NC(=O)c1ccc(CNC(=O)OCc2cccnc2)cc1 [MS-275] | – | not | increased acetylation of lys9lys 14 on histone 3 and lys5 on histone 4 | lower number of c-fos positive cells | does not facilitate associative learning | – | – |
